Assay results from PubChem BioAssay (NCI).
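Tested at 5 concentrations; 48 h exposure; 96-well plates; endpoints linearly interpolated, else capped at highest concentration. Definition used: TGI = concentration required for complete inhibition of growth.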

Legend:
Assay in all cases: NCI-60 cell line screen, 48 h
[1] = system: SR leukemia
[2] = system: T-47D breast
[3] = system: ACHN renal
[4] = system: MDA-N
[5] = system: CAKI-1 renal
[6] = system: KM12 colon
[7] = system: MOLT-4 leukemia
[8] = system: HCT-15 colon
[9] = system: SN12C renal
[10] = system: HCC-2998 colon

Measured: TGI

N/C(=N\N=C\c1nc2ccccc2o1)c1cnccn1
not listed: [10]
> 100 µM: all other assays above

CCCCCCCCCCCCCCCCOP(=O)([O-])OCC[N+](C)(C)C1CC(C)(C)N(O)C(C)(C)C1
not listed: [4] | [7] | [9]
> 100 µM: all other assays above

COC(=O)[C@@H]1Cc2ccc(OC)c(c2)OCCC(=O)N1
not listed: [9]
> 100 µM: all other assays above

Cc1nc2ccccc2n1Cc1nnc(-c2ccccc2)o1
not listed: [5]
> 100 µM: all other assays above

COc1ccc(OC)c(/C=C2/C(=O)N=C(NC(C)=O)N2C)c1
not listed: [1] | [2]
> 100 µM: all other assays above

O[C@@H]1[C@H](OC2c3ccccc3-c3ccccc32)[C@H](OCc2ccccc2)[C@@H]2OC[C@H]1O2
not listed: [1]
> 100 µM: all other assays above

C=CCN(c1cc(O)c2c(c(C)cn2S(=O)(=O)c2ccccc2)c1[N+](=O)[O-])S(C)(=O)=O
not listed: [1]
> 100 µM: all other assays above

NC1=C(c2nc(-c3ccccc3)cs2)C(c2ccco2)c2c(c3ccccc3oc2=O)O1 (configuration not stated)
not listed: [2] | [6] | [7]
> 100 µM: all other assays above

CO/C(N)=C(\C#N)N=Cc1ccsc1
not listed: [1]
> 100 µM: all other assays above

Cc1nn(C(=O)Cc2ccccc2)c2c1C(c1ccc(/C=C/c3ccccc3)cc1)SC(N)=N2 (configuration not stated)
not listed: [1]
> 100 µM: all other assays above

C#CCN(C(=O)C(F)(F)F)C(/C=C\C(=O)OC)(C(=O)OCC)C(=O)OCC
not listed: [1] | [5]
> 100 µM: all other assays above

COC(=O)c1c(C)cccc1C1CN=NC12Cc1cc(C)c(C)cc1C2=O (configuration not stated)
99.5 µM: [4]
not listed: [1]
> 100 µM: all other assays above
